From patent publication US20010049372A1, “Antiviral nucleoside analogues” (BioChem Pharma Inc., priority 1998, published 2001)
pEC50: −log10 of the molar value. Like-named read-outs stand apart in the source and are kept apart here.

Legend:
Type in all cases: cell-based
[1] = system: HIV-1macBAL; test: Anti-HIV-1 assay, dual tropic strain (p24); conditions: determined by p24
Description: (§1) ANTIVIRAL ASSAYS. The anti-HIV-1 activity of the compound A (−) were assessed by employing HIV-1IIIB in a variety of cell types as previously described (Gu et al., 1992, 1994, 1999; Rando et al., 1995; Salomon et al., 1994). Briefly, cells were incubated with virus at a multiplicity of infection (MOI) of 0.005 for T cell assays and an MOI of 0.5 for monocytic cell assays for 3 hrs. Unbound virus was then removed by washing the cells, followed by seeding the cells into a 96-well plate. The infected cells were cultured in the presence of a serial concentrations of the test compound for 5-7 days. The anti-HIV-1 efficacy was determined by testing for HIV-1 RT activity or p24 level in the cell culture supernatants. All assays were performed in duplicate. Zidovudine and/or lamivudine were used as controls in each experiment.
(§2) Furthermore, antiretroviral activity of the compound A (−) was also assessed using different types of HIV-1 strains. […]

[2] = system: JM4; test: Recombinant drug resistant HIV-1 variants (RT activity); conditions: Human immunodeficiency virus 1
Description: as §1
(§3) Recombinant HIV-1 variants were prepared by introducing the designed mutations into HXB2-D by site-directed mutagenesis as described (Gu et al. 1992, 1994). The virus stocks were prepared by transfecting MT-4 cells with infectious viral DNA constructs. Antiviral activity of the compound A (−) was evaluated as described in example 10.

[3] = system: L74V; test: as above; conditions: Human immunodeficiency virus 1
Description: as §1, §3

[4] = system: NNRTI^R; test: as above; conditions: Human immunodeficiency virus 1
Description: as §1, §3

[5] = system: E89G/M184V; test: as above; conditions: Human immunodeficiency virus 1
Description: as §1, §3

[6] = system: JM1; test: as above; conditions: Human immunodeficiency virus 1, JM1
Description: as §1, §3

[7] = system: M184I; test: as above; conditions: Human immunodeficiency virus 1
Description: as §1, §3

[8] = system: K65R/M184V; test: as above; conditions: Human immunodeficiency virus 1
Description: as §1, §3

[9] = system: M184V; test: as above; conditions: Human immunodeficiency virus 1
Description: as §1, §3

[10] = system: PI^R; test: as above; conditions: Human immunodeficiency virus 1
Description: as §1, §3

[11] = system: HIV-19881; test: Anti-HIV-1 assay, non-syncytium inducing strain (p24); conditions: Human immunodeficiency virus 1, PBMC; HIV-19881, PBMCs, determined by p24
Description: as §1, §2

[12] = system: HIV-1WRM8488; test: Anti-HIV-1 assay, monocytropic strain (p24); conditions: Human immunodeficiency virus 1; HIV-1WRM8488, m/m cells, determined by p24
Description: as §1, §2

[13] = system: Zidovudine^R/Lamivudine^R (3) clinical HIV-1 isolates (second group of Table 7); test: Clinical HIV-1 isolates (RT activity); conditions: Human immunodeficiency virus 1, Zidovudine^R/Lamivudine^R (3 isolates)
Description: as §1
Clinical strains were isolated from PBMCs of HIV-1 infected individuals through co-culture with PBMCs from normal dornors. To determine the RT genotype of the HIV-1 clinical isolates, the proviral DNA was extracted from infected CD4^+ T-cells or PBMCs and the complete RT coding regions were amplified by PCR as previously reported (Gu et al 1992). The PCR product was purified and then directly sequenced using primer RTS (5′-CCAAAAGTTAAACAATGGC-3′) which is located at the 5′ portion of the RT coding region (nucleotide 2603-2621 of HXB2-D coordinates). Antiviral activity was evaluated as described in example 10.

[14] = system: Zidovudine^R/Lamivudine^R (3) clinical HIV-1 isolates (third group of Table 7); test: microbe, parasite or virus in culture
Description: as §1, with “The anti-HIV-1 activity of the compound A (−) were assessed by employing HIV-1IIIB in a variety of cell types as previously described (Gu et al., 1992, 1994, 1999; Rando et al., 1995; Salomon et al., 1994).” left out
Clinical strains were isolated from PBMCs of HIV-1 infected individuals through co-culture with PBMCs from normal dornors.

[15] = Human immunodeficiency virus 1, PBMC, PBMCs
[16] = Human immunodeficiency virus 1, m/m cells
[17] = second group (r9), read-out: EC50 (μM), mean EC50 values
[18] = second group (r10), read-out: EC50 (μM), ranges of EC50s of the isolates in the same group
[19] = Human immunodeficiency virus 1, read-out: EC50 (μM), mean EC50 values
[20] = Human immunodeficiency virus 1, read-out: EC50 (μM), ranges of EC50s of the isolates in the same group

SMILES	pEC50 [1, 15]	pEC50 [1, 16]	pEC50 [2]	pEC50 [3]	pEC50 [4]	pEC50 [5]	pEC50 [6]	pEC50 [7]	pEC50 [8]	pEC50 [9]	pEC50 [10]	pEC50 [11]	pEC50 [12]	EC50 [13, 17]	EC50 [13, 18]	EC50 [14, 19]	EC50 [14, 20]
Nc1nc(NC2CC2)c2ncn([C@H]3CO[C@@H](CO)O3)c2n1 [Compound A (-), (−)-(2R,4R)-2-hydroxymethyl-4-(2′-amino-6′-cyclopropylamino-purine-9′-yl)-1,3-dioxolane]	5.38	7.66	6.24	6.21	7.00	6.29	5.74	6.00	5.96	6.28	6.70	6.23	7.55	0.38 µM	0.13 to 0.51 µM	0.19 µM	0.066 to 0.33 µM
Nc1ccn([C@@H]2CS[C@H](CO)O2)c(=O)n1 [Lamivudine, lamivudine]			6.07	6.29	6.82	< 4.40	< 4.40	< 4.40	< 4.40	< 4.40	6.54				≥ 5.1 µM		
Cc1cn([C@H]2C[C@H](N=[N+]=[N-])[C@@H](CO)O2)c(=O)[nH]c1=O [Zidovudine, zidovudine]	7.37	> 8.96	6.57	8.00	8.21	7.66	7.57	8.05	7.51	7.70	7.77	8.77	> 8.96	0.012 µM	0.0026 to 0.019 µM	0.83 µM	0.25 to 1.74 µM
